From PubChem BioAssay AID256 (DTP/NCI, 2004) come the findings set out here.

The test system of the assay is CD2F1 mice, L1210 leukemia ip, survival T/C. Put plainly: NCI In Vivo Anticancer Drug Screen. Data for tumor model L1210 Leukemia (intraperitoneal) in CD2F1 (CDF1) mice. Particulars: higher = longer survival. A digest of the protocol: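 Transplantable tumor in mice; compound-treated vs vehicle-treated groups. Read-out = treated/control ratio of the measured endpoint.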

The mark [1] stands for this setting: endpoint: mean survival time, dose: 100.0 mg/kg/injection, schedule: Q01DX009 (ip), vehicle: other.
Setting [2] is: endpoint: mean survival time, dose: 200.0 mg/kg/injection, schedule: Q01DX009 (ip), vehicle: other.
[3] abbreviates: endpoint: mean survival time, dose: 100.0 mg/kg/injection, schedule: Q01DX009 (ip), vehicle: saline with Tween-80.
[4] abbreviates: endpoint: mean survival time, dose: 200.0 mg/kg/injection, schedule: Q01DX009 (ip), vehicle: saline with Tween-80.
Setting [5] is: endpoint: mean survival time, dose: 400.0 mg/kg/injection, schedule: Q01DX009 (ip), vehicle: saline with Tween-80.
Setting [6] is: endpoint: mean survival time, dose: 100.0 mg/kg/injection, schedule: Q04DX003 (ip), vehicle: saline with Tween-80.
Setting [7] is: endpoint: mean survival time, dose: 400.0 mg/kg/injection, schedule: Q04DX003 (ip), vehicle: saline with Tween-80.
[8] abbreviates: endpoint: mean survival time, dose: 200.0 mg/kg/injection, schedule: Q04DX003 (ip), vehicle: saline with Tween-80.
The mark [9] stands for this setting: endpoint: mean survival time, dose: 100.0 mg/kg/injection, schedule: Q01DX001 (ip), vehicle: saline with Tween-80.
The mark [10] stands for this setting: endpoint: mean survival time, dose: 200.0 mg/kg/injection, schedule: Q01DX001 (ip), vehicle: saline with Tween-80.
The mark [11] stands for this setting: endpoint: mean survival time, dose: 400.0 mg/kg/injection, schedule: Q01DX001 (ip), vehicle: saline with Tween-80.
Setting [12] is: endpoint: mean survival time, dose: 100.0 mg/kg/injection, schedule: Q01DX009 (ip), vehicle: saline.

Molecules are shown by their SMILES. “And” between values parts separate entries of the source, which are not always exact repeats. Identical values can stand only once. Inconclusive results and toxic doses are left out.

`O=C(c1cccnc1)c1cn(C2OC(CO)C(O)C(O)C2O)c2ccccc12` (configuration not stated): the T/C by setting is: (endpoint: mean survival time, dose: 12.5 mg/kg/injection, schedule: Q01DX005 (ip), vehicle: other) 93 % of control; (endpoint: mean survival time, dose: 25.0 mg/kg/injection, schedule: Q01DX005 (ip), vehicle: other) 97 % of control; (endpoint: mean survival time, dose: 50.0 mg/kg/injection, schedule: Q01DX005 (ip), vehicle: other) 104 % of control; (endpoint: mean survival time, dose: 100.0 mg/kg/injection, schedule: Q01DX005 (ip), vehicle: other) 97 % of control; (endpoint: mean survival time, dose: 200.0 mg/kg/injection, schedule: Q01DX005 (ip), vehicle: other) 95 % of control.

In the case of `CCNC(=O)c1ccccc1N=NN(C)C`, the T/C (endpoint: mean survival time, dose: 18.7 mg/kg/injection, schedule: Q01DX009 (ip), vehicle: Klucel (hydroxypropylcellulose) (HPC)) was 105 % of control; the T/C (endpoint: mean survival time, dose: 18.75 mg/kg/injection, schedule: Q01DX009 (ip), vehicle: Klucel (hydroxypropylcellulose) (HPC)) is 92 % of control and 97 % of control.

Take `CC([NH-])C([NH-])O.[Cl][Pt+2][Cl]` (configuration not stated): the T/C (endpoint: mean survival time, dose: 6.25 mg/kg/injection, schedule: Q04DX003 (ip), vehicle: saline with Tween-80) was 115 % of control.

As for `C/C(CCc1ccccc1)=N/O`, the T/C was 100 % of control under setting [1]; 103 % of control under setting [2]; 101 % of control (endpoint: mean survival time, dose: 400.0 mg/kg/injection, schedule: Q01DX009 (ip), vehicle: other).

With `C[Si](F)(c1cccc2ccccc12)c1cccc2ccccc12`, the T/C is, setting by setting: under setting [3], 93 % of control; under setting [4], 98 % of control; under setting [5], 96 % of control.

`COc1nc(N)nc2c1nnn2C1OC(CO)C(O)C1O` (configuration not stated): the T/C (endpoint: mean survival time, dose: 50.0 mg/kg/injection, schedule: Q01DX009 (ip), vehicle: Klucel (hydroxypropylcellulose) (HPC)) was 117 % of control.

For `O=C1C=CC(=Nc2ccc(Cl)cc2)O1`, the T/C was 101 % of control under setting [6] and 97 % of control under setting [7].

Regarding `O=C(C/C(=N\C(=S)Nc1cc(C(F)(F)F)ccc1Cl)NO)N1CCCC1`, the T/C reads like this: (endpoint: median survival time, dose: 12.5 mg/kg/injection, schedule: Q01DX009 (ip), vehicle: saline with Tween-80) 101 % of control; (endpoint: median survival time, dose: 25.0 mg/kg/injection, schedule: Q01DX009 (ip), vehicle: saline with Tween-80) 97 % of control and 105 % of control; (endpoint: median survival time, dose: 50.0 mg/kg/injection, schedule: Q01DX009 (ip), vehicle: saline with Tween-80) 102 % of control (2×) and 106 % of control; (endpoint: median survival time, dose: 100.0 mg/kg/injection, schedule: Q01DX009 (ip), vehicle: saline with Tween-80) 108 % of control and 109 % of control; (endpoint: median survival time, dose: 200.0 mg/kg/injection, schedule: Q01DX009 (ip), vehicle: saline with Tween-80) 121 % of control and 122 % of control and 123 % of control; (endpoint: median survival time, dose: 300.0 mg/kg/injection, schedule: Q01DX009 (ip), vehicle: saline with Tween-80) 86 % of control.

`CC1(C)CC(=O)C2=C(C1)OC1(O)CC(C)(C)CC(=O)C1C2c1ccccc1Cl` (configuration not stated): the T/C is 93 % of control under setting [3]; 92 % of control under setting [6]; 93 % of control under setting [4]; 94 % of control under setting [8]; 95 % of control under setting [5]; 96 % of control under setting [7].

As to `CC(=O)CC(=O)c1ccccc1.CC(=O)CC(=O)c1ccccc1.[Cl][Sn][Cl]`, the T/C is 92 % of control under setting [9], 100 % of control under setting [10] and 107 % of control under setting [11].

Regarding `OCC1OC(n2cnc3c2nnn2ccnc32)C(O)C1O` (configuration not stated), the T/C was 112 % of control under setting [12]; 106 % of control (endpoint: mean survival time, dose: 200.0 mg/kg/injection, schedule: Q01DX009 (ip), vehicle: saline); 115 % of control (endpoint: mean survival time, dose: 400.0 mg/kg/injection, schedule: Q01DX009 (ip), vehicle: saline).

Regarding `C=C(Cl)CN(CC)CCO`, the T/C under setting [3] is 103 % of control.

Take `COc1c(NC(=O)Nc2ccccc2C)cccc1[N+](=O)[O-]`: the T/C reads like this: (endpoint: mean survival time, dose: 50.0 mg/kg/injection, schedule: Q04DX002 (ip), vehicle: saline with Tween-80) 94 % of control; (endpoint: mean survival time, dose: 100.0 mg/kg/injection, schedule: Q04DX002 (ip), vehicle: saline with Tween-80) 90 % of control and 96 % of control.

Consider `OCC(O)C(O)C(O)c1csc(=S)[nH]1` (configuration not stated), for which the T/C under setting [9] was 97 % of control, the T/C under setting [10] is 103 % of control and the T/C under setting [11] is 100 % of control.

With `c1ccc2ncccc2c1`, the T/C is, setting by setting: under setting [1], 103 % of control; under setting [2], 101 % of control.

Take `O=C(c1ccccc1)c1ccc2c(c1)-c1ccccc1-2`: the T/C under setting [3] is 94 % of control; the T/C under setting [6] is 100 % of control; the T/C under setting [4] was 94 % of control; the T/C under setting [8] is 93 % of control; the T/C under setting [5] was 93 % of control; the T/C under setting [7] is 95 % of control.

Turning to `COc1cc2c(cc1OC)C13CCN4CC5=CCOC6CC(=O)N2C1C6C5CC43` (configuration not stated) (tested in a mixture with another compound), the T/C is 110 % of control under setting [9] and 93 % of control under setting [12].

As to `CC(C)(C#N)Nc1ccccc1`, the T/C is 100 % of control (endpoint: mean survival time, dose: 3.13 mg/kg/injection, schedule: Q01DX009 (ip), vehicle: saline); 91 % of control (endpoint: mean survival time, dose: 6.25 mg/kg/injection, schedule: Q01DX009 (ip), vehicle: saline with Tween-80); 94 % of control (endpoint: mean survival time, dose: 6.25 mg/kg/injection, schedule: Q01DX009 (ip), vehicle: saline); 94 % of control (endpoint: mean survival time, dose: 12.5 mg/kg/injection, schedule: Q01DX009 (ip), vehicle: saline with Tween-80).

For the compound `O=S(=O)(O)c1cc(O)ccc1O.O=S(=O)(O)c1cc(O)ccc1O.[NH-]C1CCCCC1[NH-].[Pt+2]`, the T/C (endpoint: median survival time, dose: 6.25 mg/kg/injection, schedule: Q04DX003 (ip), vehicle: saline) was 117 % of control; the T/C (endpoint: median survival time, dose: 12.5 mg/kg/injection, schedule: Q04DX003 (ip), vehicle: saline) is 123 % of control; the T/C (endpoint: median survival time, dose: 25.0 mg/kg/injection, schedule: Q04DX003 (ip), vehicle: saline) was 162 % of control; the T/C (endpoint: median survival time, dose: 50.0 mg/kg/injection, schedule: Q04DX003 (ip), vehicle: saline) is 150 % of control and 337 % of control; the T/C (endpoint: median survival time, dose: 100.0 mg/kg/injection, schedule: Q04DX003 (ip), vehicle: saline) was 235 % of control and 375 % of control.

Take `CC(CC(=O)O)[Se][Se]C(C)CC(=O)O` (configuration not stated): the T/C is 95 % of control under setting [9] and 103 % of control under setting [10].

In the case of `CN(Cc1cnc2nc(N)nc(N)c2n1)c1ccc(C(=O)NC(CCC(=O)O)C(=O)NC(CC(=O)O)C(=O)O)cc1` (configuration not stated), the T/C is 100 % of control (endpoint: mean survival time, dose: 1.0 mg/kg/injection, schedule: Q01DX009 (ip), vehicle: sodium bicarbonate); 111 % of control (endpoint: mean survival time, dose: 2.0 mg/kg/injection, schedule: Q01DX009 (ip), vehicle: sodium bicarbonate); 121 % of control (endpoint: mean survival time, dose: 5.0 mg/kg/injection, schedule: Q01DX009 (ip), vehicle: sodium bicarbonate); 105 % of control (endpoint: mean survival time, dose: 50.0 mg/kg/injection, schedule: Q01DX009 (ip), vehicle: sodium bicarbonate).

`CCCNC(C)=O`: the T/C runs as follows: (endpoint: mean survival time, dose: 100.0 mg/kg/injection, schedule: Q04DX003 (ip), vehicle: saline) 97 % of control; (endpoint: mean survival time, dose: 200.0 mg/kg/injection, schedule: Q04DX003 (ip), vehicle: saline) 97 % of control; (endpoint: mean survival time, dose: 400.0 mg/kg/injection, schedule: Q04DX003 (ip), vehicle: saline) 100 % of control.

In the case of `CC(CO)CCC1OC2CC3C4CCC5CC(O)CCC5(C)C4CCC3(C)C2C1C` (configuration not stated), the T/C was 95 % of control under setting [9] and 94 % of control under setting [10].

As for `CC(C)CCCCCOC(=O)Nc1cccc2ccccc12`, the T/C was 92 % of control under setting [9], 89 % of control under setting [10] and 92 % of control under setting [11].

For `CC(=O)CC(C)(C)N`, the T/C runs as follows: (endpoint: mean survival time, dose: 50.0 mg/kg/injection, schedule: Q01DX009 (ip), vehicle: saline with Tween-80) 94 % of control; under setting [3], 97 % of control; under setting [6], 97 % of control; under setting [4], 92 % of control.

As for `O=C(OC1CC2CCC1C2Cl)c1ccc2ccccc2c1` (configuration not stated), the T/C by setting is: under setting [9], 93 % of control; under setting [3], 91 % of control; under setting [10], 89 % of control; under setting [4], 93 % of control; under setting [11], 95 % of control; under setting [5], 95 % of control.

As to `CN(C)C(=S)SCc1ccc(Cl)cc1`, the T/C (endpoint: mean survival time, dose: 100.0 mg/kg/injection, schedule: Q04DX003 (ip), vehicle: other) was 93 % of control; the T/C (endpoint: mean survival time, dose: 200.0 mg/kg/injection, schedule: Q04DX003 (ip), vehicle: other) is 102 % of control; the T/C (endpoint: mean survival time, dose: 400.0 mg/kg/injection, schedule: Q04DX003 (ip), vehicle: other) was 100 % of control.
